Measurements as given in patent publication US8822413B2, “Bifunctional hormone having alpha-MSH activity and natriuretic peptide activity and uses thereof” (Theratechnologies Inc., priority 2007, dated 2014).
Bridge positions count the residues as written; N and C are the ends. Square brackets hold non-standard residues; d marks the D form. Peptide text beside a SMILES is read from it.

Columns and labels:
CD11b/c, KIM-1 and IL-1β = assay: Western blot of inflammatory and tubular injury markers in kidneys after renal ischemia; format: in vivo, rat; conditions: 15 μg/kg/h for 24 h, renal clamping 30 min, FIG. 6
Procedure: Bifunctional hormone #33 was infused at an infusion rate of 15 μg/kg/h for 24 h using Alzet™ minipumps. The proteins were identified with specific antibodies. (A) Western blot. (B) Histograms showing the relative abundance of the markers.
Renal ischemia elicits increased expression of inflammatory markers such as IL-1, IL-18, Tumor Necrosis Factor alpha (TNF-α) and CD11b (neutrophil marker; evidence of neutrophil infiltration of the tissue) as well as tubular epithelial markers such as KIM-1, NGAL and NAG. There is considerable interest in these markers since these markers are expressed earlier than the observed rise in serum creatinine levels. Therefore, diagnosis of acute kidney injury based on the markers allows for earlier treatment of the patients which may produce better outcomes in terms of dialysis need and mortality. The effect of the bifunctional hormone #33 on the expression of inflammatory and tubular injury markers was assessed using the animal model described in Example 5.
Preparation of dosing solutions. Peptide #33 was infused for 24 h at an infusion rate of 15 μg/Kg/h using Alzet™ minipumps.
Western blotting. Fresh kidneys were rapidly dissected and homogenized with a tissue homogenizer in ice cold lysis buffer: 20 mM Tris, 135 mM NaCl, 1% NP-40™, 0.1% SDS, 10% glycerol containing Complete-Mini Protease Inhibitor Cocktail™ (Roche). Following a 15-min incubation on ice, samples were centrifuged at 13,000 rpm for 5 min at 4° C. and the supernatants containing solubilized protein extracts were collected. Protein samples (40 ug protein) were resolved on 10% SDS polyacrylamide gel electrophoresis and transferred to PVDF membranes (Amersham, Pharmacia). Non-specific binding was eliminated by incubating membranes for 1 h at room temperature in a solution of 5% non-fat milk in TBST (10 mM Tris, 150 mM NaCl, 0.2% Tween-20). […]

Sprague-Dawley (SD) rats [1] = assay: Effect on angiotensin II-induced hypertension in SD rat; format: in vivo; conditions: Ang II infusion, FIG. 2
Text: BNP (Natrecor®) was approved by the FDA for lowering blood pressure in hypertensive crisis. Its natural homolog, ANP, was also shown to rapidly reduce blood pressure and is useful as a therapeutic in hypertensive crisis. Activation of renin-angiotensin system is implicated in several medical indications involving hypertension. Therefore, a rat model in which blood pressure was raised with the continuous infusion of angiotensin II was used, and the potency/efficacy of native ANP (peptide #2 in the figures) and the bifunctional hormone of SEQ ID NO: 33 (peptide #33 in the figures) to reduce blood pressure was tested following intravenous bolus injections of the peptides in SD rats.
Animals. Sprague-Dawley (SD) rats (male, weighing from 300 to 330 g) were obtained from Charles River Inc. Animals were maintained on standard laboratory chow under a 12:12 light:dark cycle.
Surgical preparation. The rats were anesthetized with isoflurane 2.5% for the duration of the experiment. Animals were placed under radiant warmer to keep the temperature at 37.5° C. The carotid artery was catheterized (Polyethylene™ Tubing PE90) for continuous arterial blood pressure recording with a pressure transducer (Statham) connected to a multichannel recorder (TA240 Gould). […] During this period, the stability of blood pressure was assessed. […]

Sprague-Dawley (SD) rats [2] = assay: Effect on mean arterial pressure (MAP) of anesthetized rat, iv bolus and iv infusion; format: in vivo

CC[C@H](C)[C@@H]1NC(=O)[C@H](CCCNC(=N)N)NC(=O)[C@H](CC(=O)O)NC(=O)[C@H](CCSC)NC(=O)[C@H](CCCNC(=N)N)NC(=O)CNC(=O)CNC(=O)[C@H](Cc2ccccc2)NC(=O)[C@@H](NC(=O)[C@H](CCSC)NC(=O)[C@@H]2CCCN2C(=O)[C@H](CCCCN)NC(=O)CNC(=O)[C@H](Cc2c[nH]c3ccccc23)NC(=O)[C@H](CCCNC(=N)N)NC(=O)[C@@H](Cc2ccccc2)NC(=O)[C@H](Cc2c[nH]cn2)NC(C)=O)CSSC[C@@H](C(=O)N[C@@H](CC(N)=O)C(=O)N[C@@H](CO)C(=O)N[C@@H](Cc2ccccc2)C(=O)N[C@@H](CCCNC(=N)N)C(=O)N[C@@H](Cc2ccc(O)cc2)C(N)=O)NC(=O)CNC(=O)[C@H](CC(C)C)NC(=O)CNC(=O)[C@H](CO)NC(=O)[C@H](CCC(N)=O)NC(=O)[C@H](C)NC(=O)CNC1=O [SEQ ID NO: 33, Ac-H-f-R-W-G-K-P-M-[C-F-G-G-R-M-D-R-I-G-A-Q-S-G-L-G-C]-N-S-F-R-Y-NH2] (Ac-H[dF]RWGKPMCFGGRMDRIGAQSGLGCNSFRY-NH2; disulfide 9-25)
expression of CD11b/c (neutrophil marker) in kidney (CD11b/c, KIM-1 and IL-1β): reduced the expression
expression of IL-1β (inflammatory cytokine) in kidney (CD11b/c, KIM-1 and IL-1β): reduced the expression
expression of KIM-1 (tubular injury marker) in kidney (CD11b/c, KIM-1 and IL-1β): reduced the expression
effect on blood pressure raised by angiotensin II (Sprague-Dawley (SD) rats [1]; iv bolus doses of 400 μg/kg and above): effect similar to that of ANP
effect on blood pressure raised by angiotensin II (Sprague-Dawley (SD) rats [1]; iv bolus doses of up to 300 μg/kg): did not induced hypotension
effect on MAP of continuous intravenous infusion (Sprague-Dawley (SD) rats [2]; 30 μg/kg/h iv infusion, MAP recorded over an hour, FIG. 1B): well tolerated
bolus iv dose tolerated (MAP) (Sprague-Dawley (SD) rats [2]; anesthetized SD rat, incremental iv bolus doses, FIG. 1A): up to 20 μg/kg
